Assay: Stability of the product at 40° C. / 75% RH (ferric citrate assay and ferric assay by titration)
Format: physicochemical
Details: Temperature 40° C. ± 2° C., Humidity 75% ± 5% RH
Protocol: 1.1.3. Stability of the Product
0.5 g of ferric citrate, accurately weighed, in 100 mL of water and 5 mL of hydrochloric acid were added in a flask on a water bath until dissolved. 3 g of potassium iodide and 5 mL of hydrochloric acid were added to the flask to form a mixture, and a stopper was inserted in the flask. The mixture was allowed to stand for 15 minutes, and the librated iodine was titrated with 0.1 N sodium thiosulfate solution using a starch test solution as an indicator. A blank test was performed with the same quantities of reagents and in the same manner, and corrections were made if necessary. Each milliliter of 0.1 N sodium thiosulfate is equivalent to 24.496 mg of FeC6H5O7 and each milliliter of 0.1 N sodium thiosulfate is equivalent to 5.585 mg of Iron(III).

## ferric citrate [FeC6H5O7 product]
1st month
  Ferric assay: 17.68%
  Ferric citrate assay: 99.65%
2nd month
  Ferric assay: 17.66%
  Ferric citrate assay: 99.58%
3rd month
  Ferric assay: 17.70%
  Ferric citrate assay: 99.79%
6th month
  Ferric assay: 17.81%
  Ferric citrate assay: 100.37%
Initial
  Ferric assay: 17.69%
  Ferric citrate assay: 99.70%

— patent US6903235B2, “Pharmaceutical-grade ferric citrate” (Panion & BF Biotech Inc., priority 2003, dated 2005)
